Assay results: patent US10988478B1, “Pyrazolo[1,5a]pyrimidine derivatives as IRAK4 modulators” (Genentech, Inc., priority 2015, dated 2021)

The compounds below were run against human IRAK4 (Homo sapiens (Human), UniProt Q9NWZ3) (assay: IRAK4 kinase inhibition, Transcreener fluorescence polarization ADP assay). Details: recombinant full-length His6-IRAK4; 125 uM ATP; 90 min; Ki computed using ATP Km 642 uM.
Sequence of human IRAK4 (Q9NWZ3 whole entry): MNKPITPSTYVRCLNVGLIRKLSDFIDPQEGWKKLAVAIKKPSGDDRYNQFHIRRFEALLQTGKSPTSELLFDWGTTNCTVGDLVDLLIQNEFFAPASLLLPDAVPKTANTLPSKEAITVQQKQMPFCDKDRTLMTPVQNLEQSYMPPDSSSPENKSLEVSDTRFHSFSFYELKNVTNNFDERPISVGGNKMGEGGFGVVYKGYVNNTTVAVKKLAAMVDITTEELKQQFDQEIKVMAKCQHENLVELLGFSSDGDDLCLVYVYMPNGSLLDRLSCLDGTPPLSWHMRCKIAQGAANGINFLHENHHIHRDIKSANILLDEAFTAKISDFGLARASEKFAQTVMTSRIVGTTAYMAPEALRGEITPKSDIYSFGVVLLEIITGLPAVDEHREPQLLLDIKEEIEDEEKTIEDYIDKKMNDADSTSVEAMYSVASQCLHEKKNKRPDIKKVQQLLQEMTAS
Type: biochemical
Experimental: Compounds were assayed for inhibition of human IRAK4 and IRAK1 catalytic activity using recombinant enzyme produced from insect cells. Full-length IRAK4 protein, carrying an N-terminal His6-Tag, was obtained from Life Technologies (Carlsbad, Calif., USA). The IRAK1 construct was produced internally and was comprised of IRAK1 residues Arg194 to Ser712, preceded by an NH2-terminal His6 tag and the coding sequence for glutathione-S-transferase.
For `CC1(C)Cc2cc(NC(=O)c3cnn4cccnc34)c(N3CCC(O)C(F)C3)cc2O1` (stereo not shown) [Example 115, N-(6-(3-Fluoro-4-hydroxypiperidin-1-yl)-2,2-dimethyl-2,3-dihydrobenzofuran-5-yl)pyrazolo[1,5-a]pyrimidine-3-carboxamide], the Ki was 0.0095 µM.
`CC(C)(CO)N1Cc2cc(NC(=O)c3cnn4cccnc34)c(N3CCOCC3)cc2C1=O` [Example 250, N-[2-(2-Hydroxy-1,1-dimethyl-ethyl)-6-morpholino-1-oxo-isoindolin-5-yl]pyrazolo[1,5-a]pyrimidine-3-carboxamide] showed a Ki of 0.024 µM.
`CN1Cc2cc(NC(=O)c3cnn4cccnc34)c(N3CCOCC3)cc2C1=O` [Example 140, N-(2-Methyl-6-morpholino-1-oxoisoindolin-5-yl)pyrazolo[1,5-a]pyrimidine-3-carboxamide] gave a Ki of 0.026 µM.
For `CC(=O)N1CCCN(c2cc3c(cc2NC(=O)c2cnn4cccnc24)CC(C)(C)O3)CC1` [Example 220, N-(6-(4-acetyl-1,4-diazepan-1-yl)-2,2-dimethyl-2,3-dihydrobenzofuran-5-yl)pyrazolo[1,5-a]pyrimidine-3-carboxamide], the Ki was 0.075 µM.
`CC1(C)Cc2cc(NC(=O)c3cnn4cccnc34)c(N3CCOCC3)c(C#N)c2O1` [Example 143, N-(7-Cyano-2,2-dimethyl-6-morpholino-2,3-dihydrobenzofuran-5-yl)pyrazolo[1,5-a]pyrimidine-3-carboxamide] was tested, and the Ki was 0.74 µM.
`O=C(Nc1cc2c(cc1N1CCOCC1)C(=O)N([C@H]1CCOC[C@@H]1F)C2)c1cnn2cccnc12` [Example 399, N-[2-[(3R,4S)-3-Fluorotetrahydropyran-4-yl]-6-morpholino-1-oxo-isoindolin-5-yl]pyrazolo[1,5-a]pyrimidine-3-carboxamide] gave a Ki of 0.005 µM.
`C[C@@]1(O)CCCN(c2cc3c(cc2NC(=O)c2cnn4cccnc24)C[C@](C)(CO)O3)CC1` [Example 329, N-((R)-6-((R)-4-hydroxy-4-methylazepan-1-yl)-2-(hydroxymethyl)-2-methyl-2,3-dihydrobenzofuran-5-yl)pyrazolo[1,5-a]pyrimidine-3-carboxamide] gave a Ki of 0.006 µM.
In the case of `CN(C)C1CCN(c2cc3c(cc2NC(=O)c2cnn4cccnc24)CC(C)(C)O3)CC1` [Example 532, N-[6-[4-(dimethylamino)-1-piperidyl]-2,2-dimethyl-3H-benzofuran-5-yl]pyrazolo[1,5-a]pyrimidine-3-carboxamide], the Ki is reported as 0.0072 µM.
Compound `C[C@@]1(CO)Cc2cc(NC(=O)c3cnn4cccnc34)c(N3CC[C@@H](F)C3)cc2O1` [Example 59, N-[(2S)-6-[(3R)-3-Fluoropyrrolidin-1-yl]-2-(hydroxymethyl)-2-methyl-3H-benzofuran-5-yl]pyrazolo[1,5-a]pyrimidine-3-carboxamide] has a Ki of 0.0096 µM.
With `CC(C)(O)[C@H]1CC[C@@H](N2Cc3cc(NC(=O)c4cnn5cccnc45)c(N4CCOCC4)cc3C2=O)CC1` [Example 547, Cis-N-[2-[4-(1-Hydroxy-1-methyl-ethyl)cyclohexyl]-6-morpholino-1-oxo-isoindolin-5-yl]pyrazolo[1,5-a]pyrimidine-3-carboxamide] the Ki was 0.038 µM.
In the case of `CC1(C)Cc2cc(NC(=O)c3cnn4cccnc34)c(N3CCC(C(F)(F)F)C3)cc2O1` (stereo not shown) [Example 195, N-[2,2-dimethyl-6-[3-(trifluoromethyl)pyrrolidin-1-yl]-3H-benzofuran-5-yl]pyrazolo[1,5-a]pyrimidine-3-carboxamide], the Ki is reported as 0.02 µM.
`CC1(O)CN(c2cc3c(cc2NC(=O)c2cnn4cccnc24)CC(C)(C)O3)C1` [Example 105, N-[6-(3-hydroxy-3-methyl-azetidin-1-yl)-2,2-dimethyl-3H-benzofuran-5-yl]pyrazolo[1,5-a]pyrimidine-3-carboxamide] was tested, and the Ki was 0.72 µM.
`CC1(C)Cc2cc(NC(=O)c3cnn4cccnc34)c(-c3cncc(C#N)c3)cc2O1` [Example 405, N-(6-(5-Cyanopyridin-3-yl)-2,2-dimethyl-2,3-dihydrobenzofuran-5-yl)pyrazolo[1,5-a]pyrimidine-3-carboxamide] showed a Ki of 0.52 µM.
`CNC(=O)[C@]1(C)Cc2cc(NC(=O)c3cnn4cccnc34)c(N3CCOCC3)cc2O1` [Example 48, (S)—N-(2-Methyl-2-(methylcarbamoyl)-6-morpholino-2,3-dihydrobenzofuran-5-yl)pyrazolo[1,5-a]pyrimidine-3-carboxamide] gave a Ki of 0.19 µM.
Work on `CC1(C)Cc2cc(NC(=O)c3cnn4cccnc34)c(N3CCN(CCN4CCCC4=O)CC3)cc2O1` [Example 470, N-(2,2-dimethyl-6-(4-(2-(2-oxopyrrolidin-1-yl)ethyl)piperazin-1-yl)-2,3-dihydrobenzofuran-5-yl)pyrazolo[1,5-a]pyrimidine-3-carboxamide] yielded a Ki of 0.012 µM.
For `CC1(C)Cc2cc(NC(=O)c3cnn4cccnc34)c(OC[C@H]3CCC(=O)N3)cc2O1` [Example 540, N-[2,2-dimethyl-6-[[(2R)-5-oxopyrrolidin-2-yl]methoxy]-3H-benzofuran-5-yl]pyrazolo[1,5-a]pyrimidine-3-carboxamide], the Ki was 0.074 µM.
`C[C@@]1(CO)Cc2cc(NC(=O)c3cnn4cccnc34)c(N3CCC(CO)CC3)cc2O1` [Example 130, (S)—N-(2-(hydroxymethyl)-6-(4-(hydroxymethyl)piperidin-1-yl)-2-methyl-2,3-dihydrobenzofuran-5-yl)pyrazolo[1,5-a]pyrimidine-3-carboxamide] gave a Ki of 0.0033 µM.
Compound `CC(C)(O)[C@]1(C)Cc2cc(NC(=O)c3cnn4cccnc34)c(N3CCN(CC(N)=O)CC3)cc2O1` [Example 524, N-[(2S)-6-[4-(2-amino-2-oxo-ethyl)piperazin-1-yl]-2-(1-hydroxy-1-methyl-ethyl)-2-methyl-3H-benzofuran-5-yl]pyrazolo[1,5-a]pyrimidine-3-carboxamide] has a Ki of 0.0041 µM.
Compound `O=C(Nc1cc2c(cc1N1CCOCC1)OC1(CCNCC1)C2)c1cnn2cccnc12` [Example 142, N-(6-Morpholinospiro[3H-benzofuran-2,4′-piperidine]-5-yl)pyrazolo[1,5-a]pyrimidine-3-carboxamide] has a Ki of 0.02 µM.
For `O=C(Nc1cc2c(cc1N1CCC(CO)CC1)OCCN2)c1cnn2cccnc12` [Example 1, N-(7-(4-(Hydroxymethyl)piperidin-1-yl)-3,4-dihydro-2H-benzo[b][1,4]oxazin-6-yl)pyrazolo[1,5-a]pyrimidine-3-carboxamide], the Ki was 0.0047 µM.
Work on `CN1CC[C@]2(Cc3cc(NC(=O)c4cnn5cccnc45)c(N4CCOCC4)cc3O2)C1` [Example 390, (R)—N-(1′-methyl-6-morpholino-3H-spiro[benzofuran-2,3′-pyrrolidin]-5-yl)pyrazolo[1,5-a]pyrimidine-3-carboxamide] yielded a Ki of 0.016 µM.
In the case of `Cc1cnc2c(C(=O)Nc3cc4c(cc3N3CCOCC3)O[C@@](C)(CO)C4)cnn2c1` [Example 29, (R)—N-(2-(hydroxymethyl)-2-methyl-6-morpholino-2,3-dihydrobenzofuran-5-yl)-6-methylpyrazolo[1,5-a]pyrimidine-3-carboxamide], the Ki is reported as 0.009 µM.
`O=C(Nc1cc2c(cc1N1CCOCC1)C(=O)N([C@H]1CC[C@H](O)CC1)C2)c1cnn2cccnc12` [Example 181, N-[2-(4-hydroxycyclohexyl)-6-morpholino-1-oxo-isoindolin-5-yl]pyrazolo[1,5-a]pyrimidine-3-carboxamide] showed a Ki of 0.002 µM.
With `CC(C)(N)CN1CCN(c2cc3c(cc2NC(=O)c2cnn4cccnc24)CC(C)(C)O3)CC1` [Example 476, N-(6-(4-(2-amino-2-methylpropyl)piperazin-1-yl)-2,2-dimethyl-2,3-dihydrobenzofuran-5-yl)pyrazolo[1,5-a]pyrimidine-3-carboxamide] the Ki was 0.033 µM.
Work on `CC1(C(F)F)Cc2cc(NC(=O)c3cnn4cccnc34)c(N3CCN(CC(F)F)CC3)cc2O1` (stereo not shown) [Example 364, N-(6-(4-(2,2-Difluoroethyl)piperazin-1-yl)-2-(difluoromethyl)-2-methyl-2,3-dihydrobenzofuran-5-yl)pyrazolo[1,5-a]pyrimidine-3-carboxamide] yielded a Ki of 0.0037 µM.
`CC1(C)Cc2cc(NC(=O)c3cnn4cccnc34)c(O[C@H]3CC[C@@H](O)CC3)cc2O1` [Example 64, Cis-N-[6-(4-hydroxycyclohexoxy)-2,2-dimethyl-3H-benzofuran-5-yl]pyrazolo[1,5-a]pyrimidine-3-carboxamide] showed a Ki of 0.0087 µM.
Compound `C[C@@]1(CO)Cc2cc(NC(=O)c3cnn4cccnc34)c(N3C[C@H]4C[C@@H]3CO4)cc2O1` [Example 43, N—((S)-6-((1R,4R)-2-Oxa-5-azabicyclo[2.2.1]heptan-5-yl)-2-(hydroxymethyl)-2-methyl-2,3-dihydrobenzofuran-5-yl)pyrazolo[1,5-a]pyrimidine-3-carboxamide] has a Ki of 0.13 µM.
Work on `COCCCN1CCN(c2cc3c(cc2NC(=O)c2cnn4cccnc24)CC(C)(C)O3)CC1` [Example 465, N-(6-(4-(3-methoxypropyl)piperazin-1-yl)-2,2-dimethyl-2,3-dihydrobenzofuran-5-yl)pyrazolo[1,5-a]pyrimidine-3-carboxamide] yielded a Ki of 0.038 µM.
Work on `CN1CC[C@@]2(Cc3cc(NC(=O)c4cnn5cccnc45)c(N4CCOCC4)cc3O2)C1` [Example 391, (S)—N-(1′-methyl-6-morpholino-3H-spiro[benzofuran-2,3′-pyrrolidin]-5-yl)pyrazolo[1,5-a]pyrimidine-3-carboxamide] yielded a Ki of 0.031 µM.
`CCOP(=O)(OCC)OCC1(C)Cc2cc(NC(=O)c3cnn4cccnc34)c(N3CCOCC3)cc2O1` (stereo not shown) [Example 290, Diethyl ((2-methyl-6-morpholino-5-(pyrazolo[1,5-a]pyrimidine-3-carboxamido)-2,3-dihydrobenzofuran-2-yl)methyl) phosphate] showed a Ki of 0.18 µM.
For `CN1CCC(N2Cc3cc(NC(=O)c4cnn5cccnc45)c(N4CCOCC4)cc3C2=O)CC1` [Example 180, N-[2-(1-methyl-4-piperidyl)-6-morpholino-1-oxo-isoindolin-5-yl]pyrazolo[1,5-a]pyrimidine-3-carboxamide], the Ki was 0.0038 µM.
